Data from patent US10117877B2, “Methods for fat reduction” (ALLERGAN, INC., priority 2015, dated 2018).
Entries after “also recorded” stand apart in the source; their conditions may differ.

How the values were obtained:
[1] = body weight gain in rats on daily oral gavage for 26 weeks; type: in vivo, rats (Hsd: Sprague Dawley)
Experimental: In this example it is shown that the compound of Formula I when administration orally daily results in reduction in weight gain and lower mean body weights. In general males rats (n=17-20) and female rats (n=17-20) were administered orally (by gavage) daily for 6 months at the doses indicated below.
More specifically, male and female rats (Hsd: Sprague Dawley) were assigned to four groups and administered test article formulations (0.03, 0.3, or 5 mg/kg/day compound of Formula I) or vehicle control article (0 mg/mL [0%] compound of Formula I [placebo] containing 3% hydroxypropyl-β-cyclodextrin [30 mg/mL (150 mg/kg/day)] and 10 mM phosphate buffered saline) via oral gavage once daily for 26 weeks at a volume of 5 mL/kg. Animals were sacrificed at the end of the dosing phase (up to 15 animals/sex/group) or at the end of the 4-week recovery phase (5 animals/sex/group in dose groups given vehicle control article and 5 mg/kg/day the compound of Formula I). These animals were on a restricted diet due to the length of the study. Weights were measured once per week.

[2] = system: Human Hair Dermal Papilla Cells (HHDPCs); experiment: in vitro impedance (cell dielectric spectroscopy, CellKey) assay with human dermal papilla cells; type: cell-based; settings: 10^−5 to 10^−12 M, impedance measured over 20 minutes, three independent experiments
Experimental: In this example, the lack of activity of the compound according to Formulas I and II is shown. In general, bimatoprost or the compound of Formula I was incubated at concentrations from 10^−5 and 10^−12 M with human dermal papilla cells in an in vitro impedance assay. […] Three independent experiments were performed.
More specifically, Human Hair Dermal Papilla Cells (HHDPCs) were expanded in specific culture medium (Promo Cell). After growing, the cells were seeded on 96 well plates coated with poly-L-Lysine at 20,000 cells per well. Cells were incubated during 24 hours at 37° C., 5% CO2. The day of the experiment, the culture medium was eliminated and replaced by HBSS containing BSA, 0.1% v/v. The cells were incubated in the CellKey system, for 4 hours at 28° C. before using to test compounds. Bimatoprost, the compound of Formula I, and/or the compound of Formula II were tested at […] from 10^−5 to 10^−12 M. The change in impedance was measured over 20 minutes. The background was subtracted and the impedance signal was normalized to the reference (bimatoprost) for the compound of Formula I and the compound of Formula II. The data presented is in triplicate and of three independent experiments.

[3] = system: prostamide receptors on human pre-adipocytes; experiment: xCelligence impedance assay on pre-adipocytes; type: cell-based; settings: for EC50: 20 min, human pre-adipocytes, 7 concentrations (10^−5 to 10^−9 M), signal measured for 20 minutes; for potency relative to bimatoprost on human pre-adipocytes: comparison of the EC50 values of Table 1; for stimulation of prostamide receptors on human pre-adipocytes: xCelligence impedance assay
Experimental: In this example it is shown that the compounds of Formulas I and II stimulates pre-adipocytes. In general, the compounds of Formulas I and II and bimatoprost were tested in the xCelligence impedance assay.
More specifically, pre-adipocytes were purchased from Lonza. Cells were expanded in Pre-adipocyte maintenance medium (Lonza, Switzerland). Once expanded, 10,000 cells per well were plated into xCelligence 96-well plates and incubated at 37° C. for 72 hours until the impedance signal normalized. Once normalized, media was switched to serum-free pre-adipocyte media (PDM-2) for 2 hours at 37° C. Once the signal stabilized for 30 minutes, compounds were added at 7 concentrations (10^−5 to 10^−9 M) and the signal measured for 20 minutes. The change in impedance was normalized to the background reading (buffer alone) and the EC50 calculations were determined using prism software.

female C57BL/6J mice = experiment: in vivo mouse hair re-growth model, topical on shaved backs; settings: 0.03% topical in minoxidil formulation; for full hair re-growth: shaved backs of mice
Experimental: In general, the compound of formula I and bimatoprost were prepared in the minoxidil formulation (50% Propylene Glycol; 30% Ethyl Alcohol) at a concentration of 0.03% for both compounds. Both compounds were given topically to shaved backs of mice (as described in Khidhir et al. FASEB J. 2013 27(2):557-567).
More specifically, female C57BL/6J mice (cat. no. 000664; Jackson Laboratory, Bar Harbor, Me., USA), aged 7 weeks, were randomly distributed into 4 groups to avoid any sibling bias and housed in groups of 5 with standard diet food pellets and water available ad libitum. […] From the next day, termed d 0 (zero), each mouse was treated topically with either the vehicle alone (ethanol:propylene glycol:water 3:5:2) or 0.03, 0.10, or 0.30% bimatoprost in the vehicle for d 14; 10 mice were used for each condition. The appropriate solution (70 μl) was rubbed gently into the dorsal skin of each mouse daily; new gloves were worn for each treatment type. Hair growth was recorded daily for each animal for d 42, and dorsal photographs were taken at d 0, 7, 14, 17, 21, 24, 28, 31, 35, and 42. […] To calculate mean values, the first day of growth was designated as d 43 for any mouse showing no hair growth signs by the last day. The day when the shaved dorsal area was fully covered with new black hairs, i.e., there was no pink skin remaining and no visible difference in hair length to the adjacent unshaved areas, was also recorded. This assay has been successfully used to evaluate compounds that cause hair growth (see, e.g., Khidhir et al. FASB J. 2013, 27, 557-567; Plikus et al. J. Invest. Dermatol. 2008, 128, 1071-1080).

[4] = 5 mg/kg/day oral gavage daily for 6 months, p<0.05

| Structure (SMILES) | weight gain, female rats ([1]; 0.3 mg/kg/day oral gavage daily for 6 months, p<0.05) | weight gain, female rats [1, 4] | weight gain, male rats [1, 4] | reversibility of the weight effect after administration ceased ([1]; 4-week recovery phase after 5 mg/kg/day) | start of the decrease in body weight gain ([1]; daily oral administration, male and female rats, persisted up to 183 days) [days] | change in impedance (agonist response) on human dermal papilla cells [2] | EC50 [3] [nM] | potency relative to bimatoprost on human pre-adipocytes [3] | stimulation of prostamide receptors on human pre-adipocytes [3] | start of hair re-growth (female C57BL/6J mice) | full hair re-growth (female C57BL/6J mice) |
| --- | --- | --- | --- | --- | --- | --- | --- | --- | --- | --- | --- |
| NC(=O)CCC/C=C\C[C@@H]1[C@@H](/C=C/[C@@H](O)CCc2cc(Cl)sc2Cl)[C@H](O)C[C@@H]1O [Formula I] | inhibited weight gain | inhibited weight gain | inhibited weight gain | somewhat reversible | 14 | did not produce any detectable effect; also recorded: do not show activity | 10.7 | relatively more potent than bimatoprost | stimulate prostamide receptors | appears to boost the start to hair re-growth | does not result in full hair re-growth |
| NC(=O)CCC/C=C\C[C@@H]1[C@@H](/C=C/[C@@H](O)CCc2cc(Br)sc2Br)[C@H](O)C[C@@H]1O [Formula II] | – | – | – | – | – | do not show activity | 11.7 | relatively more potent than bimatoprost | stimulate prostamide receptors | – | – |
| CCNC(=O)CCC/C=C\C[C@@H]1[C@@H](/C=C/[C@@H](O)CCc2ccccc2)[C@H](O)C[C@@H]1O [Bimatoprost, bimatoprost, reference compound] | – | – | – | – | – | reduction in impedance; also recorded: shows activity | 784 | – | stimulate prostamide receptors | accelerates both time to start and full hair re-growth | accelerates both time to start and full hair re-growth |
